This passage reports IC50 results from BindingDB's records for doi:10.1021/jm0310479 (Roche Diagnostics, 2004).

Assay [1] concerns the target RAC-alpha serine/threonine-protein kinase (Homo sapiens, UniProt P31749). Description: PKB In Vitro Kinase Assay. Conditions: pH 7.5; 22 °C. As for the experimental part: An ELISA-based assay has been developed for the serine/threonine kinase, PKB-alpha. The assay utilizes an N-terminally biotinylated substrate peptide. When this substrate is phosphorylated by the kinase, the product is recognized by a substrate/sequence-specific antibody, which binds to particular phosphorylated serine residues. […] Calculation of IC50 values was performed with ActivityBase.

Assay [2] has as its target cAMP-dependent protein kinase catalytic subunit alpha (Bos taurus, UniProt P00517). Description: Fluorescence Polarization-based Assay. Conditions: pH 7.2; 22 °C. Here is the method: In this assay, a fluorescent phosphopeptide tracer and the nonfluorescent phosphopeptides generated during a PKA reaction compete for binding to an antiphosphoserine antibody. In a reaction mixture containing phosphopeptide product, the fluorescent tracer is displaced from the antibody and the emission signal becomes depolarized. Enzymatic activity was measured by detection of fluorescence polarity in a Victor 2 reader (Wallac, Finland). […] Calculation of IC50 values was performed with ActivityBase.
(In general: Polarisation of emitted light reports the rotation of a fluorescent probe.)

Molecules are shown by their SMILES. Where a name gives a salt, the structure may show the parent alone.

Sequence of RAC-alpha serine/threonine-protein kinase (P31749 whole entry): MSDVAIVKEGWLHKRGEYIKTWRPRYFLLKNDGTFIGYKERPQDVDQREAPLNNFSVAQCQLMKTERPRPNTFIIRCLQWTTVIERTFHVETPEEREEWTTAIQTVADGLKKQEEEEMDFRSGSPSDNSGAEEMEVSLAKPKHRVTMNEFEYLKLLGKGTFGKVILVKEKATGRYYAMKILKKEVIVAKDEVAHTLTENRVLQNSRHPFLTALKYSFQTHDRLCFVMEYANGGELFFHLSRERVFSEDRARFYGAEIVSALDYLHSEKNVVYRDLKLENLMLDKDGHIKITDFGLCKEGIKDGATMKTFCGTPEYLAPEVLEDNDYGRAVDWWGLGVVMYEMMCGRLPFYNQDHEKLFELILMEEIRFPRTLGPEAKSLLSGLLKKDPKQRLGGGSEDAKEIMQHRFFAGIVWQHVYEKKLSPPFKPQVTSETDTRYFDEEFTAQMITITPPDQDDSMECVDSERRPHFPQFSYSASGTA

What is called IC50 is the midpoint of a concentration-inhibition curve. Low values mean greater potency, high ones weaker potency. For the compound `COc1ccc(O)c(C(=O)c2ccc(NC[C@@H]3CCCNC[C@H]3NC(=O)c3ccncc3)cc2)c1F` [N-[(3S,4S)-4-[({4-[(2-fluoro-6-hydroxy-3-methoxyphenyl)carbonyl]phenyl}amino)methyl]azepan-3-yl]pyridine-4-carboxamide trihydrochloride], the IC50 is 25 µM in assay [1] and 45 µM in assay [2].

In assay [1], `COc1ccc(O)c(C(=O)c2ccc(CO[C@@H]3CCCNC[C@H]3NC(=O)c3ccncc3)cc2)c1F` [N-((3R,4R)-4-{[4-(2-fluoro-6-hydroxy-3-methoxybenzoyl)benzyl]oxy}azepan-3-yl)isonicotinamide dihydrochloride] registered an IC50 of 0.355 µM.
